From US9815788B2, “Anti-angiogenic compounds” (University College Dublin National University of Ireland, …, priority 2012, dated 2017)

What was measured:
[1] = target: T1, cysteinyl-leukotriene CysLT1 (Cavia porcellus, UniProt Q2NNR5); experiment: Ex vivo cysteinyl leukotriene guinea pig lung strip assay; settings: 30 μM, 3 nM leukotriene D4
T1 construct: a lung strip obtained from Duncan Hartley derived male or female guinea pigs; from tissue; host or cells: guinea pig lung strip
T1 sequence (Q2NNR5 1-340): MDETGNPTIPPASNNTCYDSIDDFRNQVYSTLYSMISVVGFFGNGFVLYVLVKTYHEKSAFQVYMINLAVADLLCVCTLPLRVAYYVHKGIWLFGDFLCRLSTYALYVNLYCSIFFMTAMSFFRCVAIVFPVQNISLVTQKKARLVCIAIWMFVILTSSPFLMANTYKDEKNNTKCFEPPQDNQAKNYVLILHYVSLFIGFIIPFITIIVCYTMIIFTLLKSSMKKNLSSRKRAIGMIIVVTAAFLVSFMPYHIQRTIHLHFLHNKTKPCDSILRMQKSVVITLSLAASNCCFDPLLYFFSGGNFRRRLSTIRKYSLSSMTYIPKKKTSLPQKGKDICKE
Method: (§1) FIG. 15 tables the percentage inhibition by compounds 11B_CC11_HCl and 11B_CC16_HCl on the cysteinyl leukotriene pathway in in vitro and ex vivo assays. […] For in vitro cysteinyl leukotriene cell-based assays 11B_CC11_HCl and 11B_CC16_HCl, were tested at 30 μM concentration in duplicate, in a single experiment for their ability to inhibit the calcium mobilisation response of the CysLT1 receptor to 0.1 nM leukotriene D4 in CHO cells over-expressing the CysLT1 receptor or the calcium mobilisation response of the CysLT2 receptor to 30 nM of leukotriene C4 in HEK 293 cells over expressing the CysLT2 receptor.
(§2) Target profiling using Cerep and Eurofins/Panlabs profiling screens was undertaken using 11B_CC11_HCl and 11B_CC16_HCl in order to investigate the mechanism of action. […] Test substance (30 LM)-induced isometrically recorded contraction by 50 percent or more within 5 min, relative to control 3 nM leukotriene D4 response, indicates possible cysteinyl-leukotriene LT1 receptor agonist activity. […] To measure inhibition of cysteinyl leukotriene 1 (CysLT1 [LTD4]) and cysteinyl leukotriene 2 (CysLT2 [LTC4]) receptor activity, calcium mobilisation was measured using Fluor-3-loaded CHO cells (for cysLT1 assays) or HEK-293 cells (for CysLT2 assays) which stably express either the CysLT1 or CysLT2 receptors. […]

CysLT1 receptor = target: T2, CysLT1 receptor (Homo sapiens, UniProt Q9Y271); experiment: CysLT1 calcium mobilisation assay in CHO cells; type: cell-based; settings: 0.1 nM LTD4, CHO cells expressing CysLT1, read-out: inhibition of calcium mobilisation (CysLT1 antagonism)
T2 construct: host or cells: CHO cells
T2 sequence (Q9Y271 1-337): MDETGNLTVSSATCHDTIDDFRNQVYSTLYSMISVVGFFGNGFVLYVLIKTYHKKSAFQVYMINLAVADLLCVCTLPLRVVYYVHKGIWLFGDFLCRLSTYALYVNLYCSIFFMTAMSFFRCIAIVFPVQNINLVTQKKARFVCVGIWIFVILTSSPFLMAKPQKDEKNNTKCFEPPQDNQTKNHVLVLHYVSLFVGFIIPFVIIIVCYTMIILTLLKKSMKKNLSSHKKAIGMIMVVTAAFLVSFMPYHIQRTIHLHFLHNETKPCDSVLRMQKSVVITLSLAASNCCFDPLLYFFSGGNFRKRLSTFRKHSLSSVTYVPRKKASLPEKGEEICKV
Method: as §1, §2

CysLT2 receptor = target: T3, CysLT2 receptor (Homo sapiens, UniProt Q9NS75); experiment: CysLT2 calcium mobilisation assay in HEK 293 cells; type: cell-based; settings: HEK293, 30 nM LTC4, HEK-293 cells expressing CysLT2, read-out: inhibition of calcium mobilisation (CysLT2 antagonism)
T3 construct: host or cells: HEK 293 cells
T3 sequence (Q9NS75 1-346): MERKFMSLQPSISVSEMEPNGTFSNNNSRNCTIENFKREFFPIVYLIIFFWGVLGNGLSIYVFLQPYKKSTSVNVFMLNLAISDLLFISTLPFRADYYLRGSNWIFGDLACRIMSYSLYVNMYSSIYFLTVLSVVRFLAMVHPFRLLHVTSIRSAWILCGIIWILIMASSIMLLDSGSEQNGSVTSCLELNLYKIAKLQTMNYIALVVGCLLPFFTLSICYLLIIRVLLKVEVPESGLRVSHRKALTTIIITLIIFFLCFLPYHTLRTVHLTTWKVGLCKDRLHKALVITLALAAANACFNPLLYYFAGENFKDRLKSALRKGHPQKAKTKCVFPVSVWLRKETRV
Method: as §1, §2

[2] = tested on: zebrafish hyaloid vasculature; experiment: Quantification of primary hyaloid vasculature branch number in Tg(fli1:EGFP) zebrafish; type: in vivo
Method: (§3) All experiments were carried out under ethical approval granted by the UCD animal research ethics committee. Tg(fli1:EGFP) zebrafish were maintained according to standard procedures on a 14 hr light/10 hr dark cycle at 28° C. Embryos were obtained by natural spawning and developmental stages established by time and morphological criteria. […] Larvae were euthanised, and fixed in 4% PFA at 4° C. overnight before analysis.
Overall patterning of the vasculature (fin, gut and intersegmental vessels) was examined for abnormalities. Right lenses were dissected from the larvae and transferred to depression slides for observation under epi-fluorescence in the Olympus SZX16. Patterning of the hyaloid vessels on the treated larval lenses was compared to DMSO controls and the archetypal pattern previously described (Alvarez et al., 2007; Alvarez et al., 2009).
as §3, with “analysis. Lenses were dissected from the larvae and transferred to depression slides for observation under epi-fluorescence in the Olympus SZX16. Patterning of the hyaloid vessels on the treated larval lenses was compared to DMSO controls and the archetypal pattern previously described (Alvarez et al., 2007; Alvarez et al., 2009).” for “analysis.”

[3] = tested on: zebrafish intersegmental vessels; experiment: Quantification of intersegmental vessel number in zebrafish; type: in vivo; settings: 10 μM, from 6 hpf
Method: […] Larvae were manually dechorionated, euthanised, and fixed in 4% PFA at 4° C. overnight before analysis. The larvae were then washed with PBS and transferred to depression slides for observation under epi-fluorescence in an Olympus SZX16 fluorescent microscope. The number of intersegmental vessels was counted and the average number was graphed for each drug.
Larvae were manually dechorionated, euthanised, and fixed in 4% PFA at 4° C. overnight before analysis. The larvae were then washed with PBS and transferred to depression slides for observation under epi-fluorescence in an Olympus SZX16 fluorescent microscope. The number of intersegmental vessels was counted and the average number was graphed for each drug.

[4] = tested on: OE33P radio-sensitive oesophageal adenocarcinoma cells; experiment: Cell number after 24 hours drug treatment (crystal violet absorbance), OE33P; type: cell-based, human; settings: 10 μM
Method: (§4) OE33P radio-sensitive and OE33R radio-resistant oesophageal adenocarcinoma cells were used to test the effects of the compounds 11B HCl, […], 11B CC16 HCl, 11B 471 and 11B 268 on cell number. Cells were maintained in RPMI media supplemented with 10% foetal calf serum, penicillin (100 U/ml) and streptomycin (100 gig/ml). A total of 11.000 or 13,000 cells, in 100 μl media, were seeded per well in 24 well plates and left to incubate for 24 hours, with an additional 150 μl media added after 5 hours. The media was replaced with solutions containing 10 μM of 11B HCl, 11B CC11 HCl, 11B CC16 HCl, 11B 471, 11B 268 or fresh media as a control. Each drug had 6 replicates. After 24 hours of treatment, the cells were fixed with 1% glutaraldehyde for 15 minutes and then stained with crystal violet for 30 minutes. The plates were blotted and dried overnight. The cells were resuspended with 1% TritonX-100 and shaken for 15 minutes. The absorbance was read on a spectrophotometer at 590 nm.
(§5) OE33P radiosensitive and OE33R radioresistant cells were used to test the effects of the compound 11B_Z_HCl on toxicity. Cells were maintained in RPMI media supplemented with 10% foetal calf serum, penicillin (100 U/ml) and streptomycin (100 μg/ml). A total of 11,000 cells, in 100 μl media, were seeded per well in 24 well plates and left to incubate for 24 hours, with an additional 150 μl media added after 5 hours. The media was replaced with solutions containing 10 μM of 11B_Z_HCl or fresh media as a control. Each treatment had 6 replicates. After 24 hours of treatment, the cells were fixed with 1% glutaraldehyde for 15 minutes and then stained with crystal violet for 30 minutes. The plates were blotted and dried overnight. The cells were resuspended with 1% TritonX-100 and shaken for 15 minutes. The absorbance was read on a spectrophotometer at 590 nm.

[5] = tested on: OE33R radio-resistant oesophageal adenocarcinoma cells; experiment: Cell number after 24 hours drug treatment (crystal violet absorbance), OE33R; type: cell-based, human; settings: 10 μM
Method: as §4, §5

[6] = tested on: OE33R radio-resistant oesophageal adenocarcinoma cells; experiment: Quantification of glycolysis (ECAR, Seahorse), OE33R; type: cell-based, human; settings: 10 μM, 24 hours
Method: OE33P radio-sensitive and OE33R radio-resistant oesophageal adenocarcinoma cells were used to test the effects of compounds 11B HCl, 11B CC11 HCl, 11B CC16 HCl, 11B 471 and 11B 268 on glycolysis. Cells were maintained in RPMI media supplemented with 10% foetal calf serum, penicillin (100 U/ml) and streptomycin (100 μg/ml). A total of 11,000 or 13,000 cells, in 100 μl media, were seeded per well in 24 well plates and left to incubate for 24 hours, with an additional 150 μl media added after 5 hours. The media was replaced with solutions containing 10 μM of 11B HCl, […], 11B CC16 HCl, 11B 471, 11B 268 or fresh media as a control. Each drug had 6 replicates. After 24 hours of treatment, media was replaced with modified DMEM supplemented with 0.5 mM glucose. Rates of glycolysis were determined using Seahorse Biosciences metabolism technology. The media was disposed and the cells washed with PBS. The cells were fixed with 1% glutaraldehyde for 15 minutes and then stained with crystal violet for 30 minutes. The plates were blotted and dried overnight. The cells were resuspended with 1% TritonX-100 and shaken for 15 minutes. The absorbance was read on a spectrophotometer at 590 nm. Rates of glycolysis were then normalised to cell number.
OE33P radiosensitive oesophageal adenocarcinoma cells were used to test the effects of the compound 11B_ZHCl on glycolysis. Cells were maintained in RPMI media supplemented with 10% foetal calf serum, penicillin (100 U/ml) and streptomycin (100 μg/ml). A total of 11,000 cells, in 100 μl media, were seeded per well in 24 well plates and left to incubate for 24 hours, with an additional 150 μl media added after 5 hours. The media was replaced with solutions containing 10 μM of 11B_ZHCl or fresh media as a control. Each treatment had 6 replicates. After 24 hours of treatment, media was replaced with modified DMEM supplemented with 0.5 mM glucose. Rates of glycolysis were determined using Seahorse Biosciences metabolism technology. […] The absorbance was read on a spectrophotometer at 590 nm. […] No changes in ECAR were detected in OE33R treated cells.

reduction of the leukotriene D4-induced contractile response [1] [%] | inhibition at 30 µM (CysLT1 receptor) [%] | inhibition at 30 µM (CysLT2 receptor) [%] | SMILES | dose-dependent inhibition of development of hyaloid vessels ([2]; decreasing doses 20, 10, 7.5, 5, 2.5, 1 and/or 0.5 μM) | inhibition of developmental angiogenesis of the hyaloid vasculature (number of primary hyaloid vessels) ([2]; typically 10 μM or 5 μM, from 24 hpf, vs DMSO control) | inhibition of developmental angiogenesis of intersegmental vessels (number of intersegmental vessels) [3] | cell number, measured by % absorbance [4] | cell number, measured by % absorbance [5] | extracellular acidification rate (ECAR), a measure of glycolysis [6]
100 | 137 | 48 | Cl.Oc1ccccc1C#Cc1ccc2ccccc2n1 [Compound 11B_CC16_HCl, 2-Quinolin-2-yl-ylethynyl-phenol HCl salt] |  |  |  |  |  | 
 |  |  | C(=Cc1ccc2ccccc2n1)c1cccnc1 [Compound 11B-471, 2-[2-(3-pyridinyl)vinyl]quinoline] | inhibit developmental angiogenesis of zebrafish hyaloid vasculature in a dose-dependent statistically significant manner | inhibit developmental angiogenesis of the zebrafish hyaloid vasculature in a statistically significant manner | inhibit developmental angiogenesis of zebrafish intersegmental vessels in a statistically significant manner | did not significantly reduce cell number | did not significantly reduce cell number | significantly reduce
